Measured values taken from patent publication US11090304B2 (Amgen Inc., priority 2018, dated 2021).

Molecular target: GDP-bound KRAS protein (aa 1-169), containing both G12C and C118A amino acid substitutions (Homo sapiens, UniProt P01116, C118A/G12C)
Assay: Coupled nucleotide exchange assay (SOS-mediated, AlphaScreen)
Format: biochemical
Details: 5 min compound pre-incubation

GDP-bound KRAS protein (aa 1-169), containing both G12C and C118A amino acid substitutions, sequence (P01116 1-169 isoform P01116-2 G12C/C118A): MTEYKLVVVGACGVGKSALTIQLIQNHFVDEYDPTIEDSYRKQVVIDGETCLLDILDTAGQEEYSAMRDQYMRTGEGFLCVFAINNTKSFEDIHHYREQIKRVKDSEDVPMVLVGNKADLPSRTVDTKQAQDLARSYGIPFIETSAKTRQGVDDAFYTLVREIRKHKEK

Compound	Coupled exchange IC50 (5 min)
C=CC(=O)N1CCN(c2nc(=O)n(-c3c(C)ncnc3C(C)C)c3nc(-c4cc(F)ccc4F)c(Cl)cc23)[C@@H](C)C1 (single isomer, unassigned) [Example 55-39-1]	1.795 | nda μM
C=CC(=O)N1CCN(c2nc(=O)n(-c3c(C)ncnc3C(C)C)c3nc(-c4cc(C)ccc4F)c(Cl)cc23)[C@@H](C)C1 (single isomer, unassigned) [Example 55-40-1]	1.02 | nda μM
C=CC(=O)N1CCN(c2nc(=O)n(-c3c(CO)cccc3C(C)C)c3nc(-c4ccccc4F)c(Cl)cc23)[C@@H](C)C1 (single isomer, unassigned) [Example 55-43-1]	2.87 | nda μM
C=CC(=O)N1CCN(c2nc(=O)n(-c3ccccc3S(F)(F)(F)(F)F)c3nc(-c4c(O)cccc4F)c(Cl)cc23)[C@@H](C)C1 (single isomer, unassigned) [Example 56-1-1]	5.29 | nda μM
C=CC(=O)N1CCN(c2nc(=O)n(-c3c(C)ccnc3CC)c3nc(-c4c(O)cccc4F)c(F)cc23)[C@@H](C)C1 (single isomer, unassigned) [Example 57-1-2]	2.47 | nda μM
C=CC(=O)N1CCN(c2nc(=O)n(-c3ccccc3C(C)C)c3nc(-c4ccccc4F)c(F)cc23)[C@@H](C)C1 (single isomer, unassigned) [Example 57-7-1]	8.89 | nda μM
C=CC(=O)N1CCN(c2nc(=O)n(-c3c(C)cccc3CC)c3nc(-c4ccccc4F)c(F)cc23)[C@@H](C)C1 (single isomer, unassigned) [Example 57-13-1]	1.46 | nda μM
C=CC(=O)N1CCN(c2nc(=O)n(-c3c(C)cccc3CC)c3nc(-c4ccccc4F)c(F)cc23)[C@@H](C)C1 (single isomer, unassigned) [Example 57-13-2]	8.13 | nda μM
C=CC(=O)N1CCN(c2nc(=O)n(-c3c(C)cccc3CC)c3nc(-c4c(O)cccc4F)c(F)cc23)[C@@H](C)C1 (single isomer, unassigned) [Example 57-14-2]	1.8 | nda μM
C=CC(=O)N1CCN(c2nc(=O)n(-c3c(C)ccnc3CC)c3nc(-c4ccccc4F)c(F)cc23)[C@@H](C)C1 (single isomer, unassigned) [Example 57-16-1]	1.76 | nda μM
C=CC(=O)N1CCN(c2nc(=O)n(-c3c(C)ccnc3CC)c3nc(-c4ccccc4F)c(F)cc23)[C@@H](C)C1 (single isomer, unassigned) [Example 57-16-2]	7.56 | nda μM
C=CC(=O)N1CCN(c2nc(=O)n(-c3c(C)cccc3C(C)(C)C)c3nc(-c4c(O)cccc4F)c(F)cc23)[C@@H](C)C1 (single isomer, unassigned) [Example 57-17-2]	3.9 | nda μM
C=CC(=O)N1CCN(c2nc(=O)n(-c3ccccc3C(C)(C)C)c3nc(-c4c(O)cccc4F)c(F)cc23)[C@@H](C)C1 (single isomer, unassigned) [Example 58-1-1]	5.95 | nda μM
C=CC(=O)N1CCN(c2nc(=O)n(-c3c(C)ccnc3C(C)C)c3nc(-c4ccccc4F)c(F)cc23)[C@@H](C)C1 (single isomer, unassigned) [Example 58-4-2]	4.82 | nda μM
C=CC(=O)N1CCN(c2nc(=O)n(-c3c(C)ccnc3C(C)C)c3nc(-c4cc(O)ccc4F)c(F)cc23)[C@@H](C)C1 (single isomer, unassigned) [Example 58-5-1]	5.6 | nda μM
C=CC(=O)N1CCN(c2nc(=O)n(-c3c(C)ccnc3C(C)C)c3nc(-c4cc(N)ccc4F)c(F)cc23)[C@@H](C)C1 (single isomer, unassigned) [Example 58-6-1]	8.63 | nda μM
C=CC(=O)N1CCN(c2nc(=O)n(-c3c(C)ccnc3C(C)C)c3nc(-c4cc(N)ccc4Cl)c(F)cc23)[C@@H](C)C1 (single isomer, unassigned) [Example 58-8-2]	2.02 | nda μM
C=CC(=O)N1CCN(c2nc(=O)n(-c3c(C)ccnc3C(C)C)c3nc(-c4ccc(F)cc4F)c(F)cc23)[C@@H](C)C1 (single isomer, unassigned) [Example 58-10-2]	6.31 | nda μM
C=CC(=O)N1CCN(c2nc(=O)n(-c3c(C)cccc3C3CC3)c3nc(-c4c(O)cccc4F)c(F)cc23)[C@@H](C)C1 (single isomer, unassigned) [Example 58-13-1]	1.56 | nda μM
C=CC(=O)N1CCN(c2nc(=O)n(-c3c(C(C)C)ccnc3C)c3nc(-c4ccccc4F)c(F)cc23)[C@@H](C)C1 (single isomer, unassigned) [Example 58-16-1]	11.6 | nda μM
C=CC(=O)N1CCN(c2nc(=O)n(-c3ccccc3C(C)(C)C)c3nc(-c4ccccc4F)c(F)cc23)[C@@H](C)C1 (single isomer, unassigned) [Example 58-17-1]	33.2 | nda μM

Compound	Coupled exchange IC50 (5 min)
C=CC(=O)N1CCN(c2nc(=O)n(-c3c(C4CC4)ccnc3C)c3nc(-c4c(O)cccc4F)c(F)cc23)[C@@H](C)C1 (single isomer, unassigned) [Example 58-19-1]	4.06 | nda μM
C=CC(=O)N1CCN(c2nc(=O)n(-c3c(C4CC4)ccnc3C)c3nc(-c4ccccc4F)c(F)cc23)[C@@H](C)C1 (single isomer, unassigned) [Example 58-20-1]	16.2 | nda μM
C=CC(=O)N1CCN(c2nc(=O)n(-c3ccccc3C3(C(F)(F)F)CC3)c3nc(-c4c(O)cccc4F)c(F)cc23)[C@@H](C)C1 (single isomer, unassigned) [Example 59-1-1]	11.8 | nda μM
C=CC(=O)N1CCN(c2nc(=O)n(-c3ccccc3C3(C(F)(F)F)CC3)c3nc(-c4c(O)cccc4F)c(F)cc23)[C@@H](C)C1 (single isomer, unassigned) [Example 59-1-2]	1.1 | nda μM
C=CC(=O)N1CCN(c2nc(=O)n(-c3c(F)cccc3C(C)C)c3nc(-c4c(O)cccc4F)c(F)cc23)[C@@H](C)C1 (single isomer, unassigned) [Example 59-2-2]	7.49 | nda μM
C=CC(=O)N1CCN(c2nc(=O)n(-c3c(F)cccc3C(C)C)c3nc(-c4ccccc4F)c(F)cc23)[C@@H](C)C1 (single isomer, unassigned) [Example 59-3-2]	33 | nda μM
C=CC(=O)N1CCN(c2nc(=O)n(-c3c(C#N)cccc3C(C)C)c3nc(-c4ccccc4F)c(Cl)cc23)[C@@H](C)C1 (single isomer, unassigned) [Example 60-20-1]	10.2 | nda μM
C=CC(=O)N1CCN(c2nc(=O)n(-c3c(C)ncnc3C3CC3)c3nc(-c4ccccc4F)c(Cl)cc23)[C@@H](C)C1 (single isomer, unassigned) [Example 60-30-1]	1.26 | nda μM
C=CC(=O)N1CCN(c2nc(=O)n(-c3c(C)cccc3C(C)C)c3nc(-c4c(O)cccc4F)c(F)cc23)C(C)(C)C1 (single isomer, unassigned) [Example 63-4]	1.15 | nda μM
C=CC(=O)N1CCN(c2nc(=O)n(-c3ccccc3C(C)C)c3nc(-c4cccs4)c(Cl)cc23)[C@@H](C)C1 (single isomer, unassigned) [Example 67-4-1]	7.34 | nda μM
C=CC(=O)N1CCN(c2nc(=O)n(-c3ccccc3C(C)C)c3nc(-c4cccs4)c(Cl)cc23)[C@@H](C)C1 (single isomer, unassigned) [Example 67-4-2]	1.91 | nda μM
C=CC(=O)N1CCN(c2nc(=O)n(-c3c(C)cccc3C(C)C)c3nc(-c4c(C)ccc5[nH]ncc45)c(F)cc23)[C@@H](C)C1 (single isomer, unassigned) [Example 68-2-1]	5.29 | nda μM
C=CC(=O)N1CCN(c2nc(=O)n(-c3ccccc3C(C)C)c3nc(N4CCCCC4)c(Cl)cc23)[C@@H](C)C1 (single isomer, unassigned) [Example 69-1-1]	44.1 | nda μM
C=CC(=O)N1CCN(c2nc(=O)n(-c3c(C)cccc3C(C)C)c3nc(-c4nc(N)ccc4Cl)c(F)cc23)[C@@H](C)C1 (single isomer, unassigned) [Example 71-1-2]	4.89 | nda μM
C=CC(=O)N1CCN(c2nc(=O)n(-c3c(C)cccc3C(C)C)c3nc(-c4nc(N)cc5ccccc45)c(F)cc23)[C@@H](C)C1 (single isomer, unassigned) [Example 71-2-1]	8.7 | nda μM
C=CC(=O)N1CCN(c2nc(=O)n(-c3c(C)cccc3C(C)C)c3nc(-c4nc(N)cc5ccccc45)c(F)cc23)[C@@H](C)C1 (single isomer, unassigned) [Example 71-2-2]	1.06 | nda μM
C=CC(=O)N1CCN(c2nc(=O)n(-c3ccccc3C(C)C)c3nc(-c4ccccc4F)c(C)cc23)[C@@H](C)C1 (single isomer, unassigned) [Example 74-1-1]	2.16 | nda μM
C=CC(=O)N1CCN(c2nc(=O)n(-c3c(C)ccnc3C(C)C)c3nc(-c4c(O)cccc4F)c(C)cc23)[C@@H](C)C1 (single isomer, unassigned) [Example 74-3-2]	1.12 | nda μM
C=CC(=O)NC1CN(c2nc(=O)n(-c3c(C)ccnc3C(C)C)c3nc(-c4c(O)cccc4F)c(F)cc23)C1 (single isomer, unassigned) [Example 75-6, (M)-N-(1-(6-fluoro-7-(2-fluoro-6-hydroxyphenyl)-1-(4-methyl-2-(2-propanyl)-3-pyridinyl)-2-oxo-1,2-dihydropyrido[2,3-d]pyrimidin-4-yl)-3-azetidinyl)-2-propenamide]	85 | nda μM
C=CC(=O)N1CCN(c2nc(=O)n(-c3c(C)ccnc3C(C)C)c3nc(-c4c(O)cccc4F)c(F)cc23)[C@H](C(F)F)C1 (single isomer, unassigned) [Example 75-9-1, (M)-4-((2S or 2R)-2-(difluoromethyl)-4-(2-propenoyl)-1-piperazinyl)-6-fluoro-7-(2-fluoro-6-hydroxyphenyl)-1-(4-methyl-2-(2-propanyl)-3-pyridinyl)pyrido[2,3-d]pyrimidin-2(1H)-one]	1.87 | nda μM
